Assay [1] concerns the target T1, PARP2 (Homo sapiens, UniProt Q9UGN5).
T1 construct: made in house
The assay can be described thus: biochemical. The class given is biochemical. The protocol:
(§1) All starting materials, reagents, and solvents were purchased from common commercial suppliers and were used as such without further purification. […] Organic solutions were dried over anhydrous Na2SO4 and concentrated with rotary evaporator at low pressure. All the reactions were routinely checked by thin-layer chromatography (TLC) on silica gel 60F254 (Merck) and visualized by using UV and iodine. Flash chromatography separations were carried out on Merck silica gel 60 (mesh 230-400) or by using automated Buchi Reveleris X2-UV with column FP Ecoflex Si 12 g. Yields were of purified products and were not optimized. ^1HNMR spectra were recorded at 400 MHz (Bruker Avance DRX-400), while ^13CNMR spectra were recorded at 101 MHz (Bruker Avance DRX-400). Chemical shifts are given in ppm (δ) relative to TMS. […] Mating constant (J) are reported in Hz. The purity of the tested compounds was evaluated by HPLC analysis using Jasco LC-4000 instrument equipped with a UV-Visible Diode Array Jasco-MD4015 (Jasco Corporation, Tokyo, Japan), and XTerra MS C18 column, 5 μm×4.6 mm×150 mm (Waters Corporation, Massachusetts, USA). Chromatograms were analyzed by ChromNAV2.0 Chromatography Data System software. […] The peak retention time (ret. time) is given in minutes. […] 1-Isobutoxy-4-methoxy-2-nitrobenzene (113). Isobutyl alcohol (0.6 mL, 6.43 mmol) was added, under nitrogen atmosphere at 0° C., to a suspension of NaH (0.26 g, 6.43 mmol) in dry DMF. After 15 minutes, 1-fluoro-4-methoxy-2-nitrobenzene 112 (1 g, 5.84 mmol) was also added and the reaction mixture was stirred at 80° C. for 4 h. […] (2-Isobutoxy-5-methoxyphenyl)amine (114). Zn (1.57 g, 24 mmol) and NH4C1 (2.45 g, 40 mmol) were added to a solution of 113 (0.46 g, 2 mmol) in acetone/H2O (50 mL, ratio 5:1). The reaction mixture was stirred at 60° C. for 3 h and, then, it was filtered over celite. […] N-(2,5-diethoxyphenyl)thiourea (55). […] N-(2-isobutoxy-5-methoxyphenyl)thiourea (115). […] A solution of Br2 (0.2 mL, 3.3 mmol) in CHCl3 (5 mL) was slowly added to a suspension of 45 (0.6 g, 3.3 mmol) in CHCl3 (13 mL), at 0° C. The reaction mixture was stirred at r.t. for 4 h and, then, a 10% solution of Na2SO3 in water was added to the mixture. […] 4,7-Diethoxy-1,3-benzothiazol-2-amine (66). […] 4-Isobutoxy-7-methoxy-1,3-benzothiazol-2-amine (116). […] Hydrazine hydrate (0.23 mL, 4.77 mmol) and CH3COOH (0.12 mL, 2.1 mmol) were added to a suspension of 56 (0.29 g, 1.59 mmol) in ethylene glycol (8 mL), and the reaction mixture was stirred for 24 h at 125° C. […] 6-Ethyl-2-hydrazino-1,3-benzothiazole (69). […] 6-Ispropyl-2-hydrazino-1,3-benzothiazole (70). […] 2-Hydrazino-4,7-dimethoxy-1,3-benzothiazole (73). […] 2-Hydrazino-5,7-dimethoxy-1,3-benzothiazole (75). […] 2-Hydrazino-4,7-Diethoxy-1,3-benzothiazole (77). […] 2-Hydrazino-5-methyl[1,3]thiazolo[5,4-b]pyridine (100). […] A solution of 67 (0.13 g, 0.65 mmol) in formic acid (5 mL) was refluxed for 10 h. The reaction mixture was then poured into ice/water and the pH was neutralized using a saturated solution of NaHCO3.

The target of assay [2] is T2, TNKS2 (Homo sapiens, UniProt Q9H2K2).
T2 sequence (Q9H2K2 1-1166): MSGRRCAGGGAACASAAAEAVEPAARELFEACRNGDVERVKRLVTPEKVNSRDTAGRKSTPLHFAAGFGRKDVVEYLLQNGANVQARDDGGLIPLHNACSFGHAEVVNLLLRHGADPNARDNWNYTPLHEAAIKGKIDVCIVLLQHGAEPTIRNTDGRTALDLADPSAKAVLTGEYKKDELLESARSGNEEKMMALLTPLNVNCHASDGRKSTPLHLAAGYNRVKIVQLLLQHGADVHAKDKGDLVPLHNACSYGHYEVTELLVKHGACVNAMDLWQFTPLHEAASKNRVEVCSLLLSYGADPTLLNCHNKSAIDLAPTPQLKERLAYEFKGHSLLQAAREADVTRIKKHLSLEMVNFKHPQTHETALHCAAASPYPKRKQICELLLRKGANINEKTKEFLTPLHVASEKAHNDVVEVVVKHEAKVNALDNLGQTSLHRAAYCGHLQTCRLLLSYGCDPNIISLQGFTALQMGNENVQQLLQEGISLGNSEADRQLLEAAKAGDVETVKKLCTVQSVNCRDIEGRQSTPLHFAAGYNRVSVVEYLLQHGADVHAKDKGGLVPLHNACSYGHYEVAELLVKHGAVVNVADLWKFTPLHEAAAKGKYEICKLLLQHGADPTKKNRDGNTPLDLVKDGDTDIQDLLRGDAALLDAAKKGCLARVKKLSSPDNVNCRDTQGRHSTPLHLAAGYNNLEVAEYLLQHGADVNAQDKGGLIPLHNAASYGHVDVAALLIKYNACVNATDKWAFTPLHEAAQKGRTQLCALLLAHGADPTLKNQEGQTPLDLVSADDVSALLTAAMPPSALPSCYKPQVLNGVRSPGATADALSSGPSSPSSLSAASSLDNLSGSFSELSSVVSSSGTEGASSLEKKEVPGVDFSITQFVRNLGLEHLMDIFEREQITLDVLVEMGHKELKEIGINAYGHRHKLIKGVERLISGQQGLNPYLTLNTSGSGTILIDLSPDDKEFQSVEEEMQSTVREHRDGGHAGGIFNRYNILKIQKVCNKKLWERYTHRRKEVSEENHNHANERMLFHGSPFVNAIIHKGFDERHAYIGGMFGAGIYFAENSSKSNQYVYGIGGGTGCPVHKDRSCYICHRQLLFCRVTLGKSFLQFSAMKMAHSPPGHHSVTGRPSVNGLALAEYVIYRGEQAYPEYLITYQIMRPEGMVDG
The assay is described as follows: biochemical. The procedure: as §1

The mark [3] stands for this setting: NAD+ consumption assay, > less than 50% inhibition at highest concentration, >> no inhibition.
Setting [4] is: read-out: TNKS2 IC50, NAD+ consumption assay, > less than 50% inhibition at highest concentration, >> no inhibition.

Here are results for 23 compounds from US20250177359A1, “COMPOUNDS FOR USE IN THE TREATMENT OF CANCER AND INFLAMMATORY CONDITIONS” (priority 2022, published 2025).

Read-outs that look alike come from different tables or passages of the source.

T1 sequence (Q9UGN5 whole entry): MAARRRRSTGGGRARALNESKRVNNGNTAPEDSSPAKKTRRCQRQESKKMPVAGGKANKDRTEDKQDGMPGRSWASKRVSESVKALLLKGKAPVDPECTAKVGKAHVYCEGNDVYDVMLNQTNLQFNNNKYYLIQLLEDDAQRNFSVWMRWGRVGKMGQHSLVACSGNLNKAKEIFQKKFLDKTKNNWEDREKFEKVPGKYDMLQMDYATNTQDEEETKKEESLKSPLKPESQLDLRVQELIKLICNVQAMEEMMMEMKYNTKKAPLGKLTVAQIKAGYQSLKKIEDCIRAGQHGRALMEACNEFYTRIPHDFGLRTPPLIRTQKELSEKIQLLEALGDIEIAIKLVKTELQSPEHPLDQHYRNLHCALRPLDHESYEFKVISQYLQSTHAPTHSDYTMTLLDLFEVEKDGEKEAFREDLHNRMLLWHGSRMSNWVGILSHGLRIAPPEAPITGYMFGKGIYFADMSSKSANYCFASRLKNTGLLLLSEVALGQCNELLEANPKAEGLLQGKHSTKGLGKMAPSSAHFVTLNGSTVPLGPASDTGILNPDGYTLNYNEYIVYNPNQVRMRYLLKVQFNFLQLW

On to `Cc1ccc2c(c1)sc1nncn12` [Compound 1], for which the values for the IC50 in assay [1] (setting [3]) and in assay [2] (setting [4]) were 4 µM and 5.3 µM, respectively.
Regarding `Cc1cc(C)c2c(c1)sc1nncn12` [Compound 2], the figures for the IC50 in assay [1] (setting [3]) and in assay [2] (setting [4]) were 1.3 µM and 1.2 µM, respectively.
In the case of `c1ccc2c(c1)sc1nncn12` [Compound 3], the half-inhibitory concentration (IC50) in assay [1] was found to be 5.3 µM; in assay [2] (setting [4]) it was 2.5 µM.
With `Cc1ccc(F)c2c1sc1nncn12` [Compound 4, 5-Fluoro-8-methyl[1,2,4]triazolo[3,4-b][1,3]benzothiazole], in assay [2] (setting [4]), the IC50 is 5.4 µM.
Regarding `Cc1ccc2sc3nncn3c2c1` [Compound 5, 6-Methyl[1,2,4]triazolo[3,4-b][1,3]benzothiazole], it took 1.5 µM to reach half-maximal inhibition in assay [1] (setting [3]) (IC50). Besides, in assay [2] (experiment repeated three times), the “TNKS2 pIC50 ± SEM” value is reported as “(6.02 ± 0.13)”.
With `Cc1cccc2c1sc1nncn12` [Compound 6, 8-Methyl[1,2,4]triazolo[3,4-b][1,3]benzothiazole], the IC50 in assay [1] (setting [3]) stood at 8.3 µM; in assay [2] (setting [4]) it was 3.8 µM.
As to `CCc1ccc2c(c1)sc1nncn12` [Compound 7, 7-Ethyl[1,2,4]triazolo[3,4-b][1,3]benzothiazole], the IC50 in assay [1] (setting [3]) was 3.9 µM; in assay [2] (setting [4]), 5.3 µM.
As for `CC(C)c1ccc2c(c1)sc1nncn12` [Compound 8, 7-Isopropyl[1,2,4]triazolo[3,4-b][1,3]benzothiazole], the IC50 is 4.5 µM in assay [1] (setting [3]) and 9.5 µM in assay [2] (setting [4]).
As to `Clc1ccc2c(c1)sc1nncn12` [Compound 9], the IC50 worked out at 2.4 µM in assay [1] (setting [3]) and 10 µM in assay [2] (setting [4]).
For `COc1ccc2sc3nncn3c2c1` [Compound 11, 6-Methoxy[1,2,4]triazolo[3,4-b][1,3]benzothiazole], the IC50 in assay [1] (setting [3]) is 4.7 µM; in assay [2] (setting [4]), 1 µM.
Consider `COc1ccc2c(c1)sc1nncn12` [Compound 12], for which the IC50 in assay [1] (setting [3]) was 8.8 µM; in assay [2] (setting [4]), 5.5 µM.
The corresponding values for `COc1ccc(OC)c2c1sc1nncn12` [Compound 13, 5,8-Dimethoxy[1,2,4]triazolo[3,4-b][1,3]benzothiazole] are 9.2 µM and 4 µM.
For `COc1cccc2c1sc1nncn12` [Compound 14, 8-Methoxy[1,2,4]triazolo[3,4-b][1,3]benzothiazole], the IC50 in assay [1] was above 10 µM; in assay [2] (setting [4]), 24 µM.
As to `COc1cccc2sc3nncn3c12` [Compound 15, 5-Methoxy[1,2,4]triazolo[3,4-b][1,3]benzothiazole], the IC50 in assay [2] (setting [4]) worked out at 1 µM.
Take `COc1cc(OC)c2sc3nncn3c2c1` [Compound 16, 6,8-Dimethoxy[1,2,4]triazolo[3,4-b][1,3]benzothiazole]: the IC50 in assay [1] (setting [3]) was 20 µM; in assay [2] (setting [4]) it was 7.6 µM.
`Oc1cccc2c1sc1nncn12` [Compound 18, [1,2,4]Triazolo[3,4-b][1,3]benzothiazol-8-ol]: the results for the 50% inhibitory concentration (IC50) in assay [1] (setting [3]) and in assay [2] (setting [4]) were 29 µM and 17 µM, respectively.
Turning to `CSc1nnc2sc3cc(C)ccc3n12` [Compound 21, 7-Methyl-3-(methylthio)[1,2,4]triazolo[3,4-b][1,3]benzothiazole], the results for the IC50 in assay [1] (setting [3]) and in assay [2] were 12 µM and above 100 µM, respectively.
Take `Cc1ccc2c(c1)sc1nnc(SCc3ccc(Cl)cc3)n12` [Compound 23, 3-[(4-Chlorobenzyl)thio]-7-methyl[1,2,4]triazolo[3,4-b][1,3]benzothiazole]: the IC50 in assay [1] and in assay [2] was above 100 µM throughout.
`Cc1ccc2c(c1)sc1nnc(NCc3ccc(Cl)cc3)n12` [Compound 24, N-(4-chlorobenzyl)-7-methyl[1,2,4]triazolo[3,4-b][1,3]benzothiazol-3-amine]: the IC50 is 70 µM in assay [1] (setting [3]) and above 100 µM in assay [2].
Consider `Cc1ccc2c(c1)sc1nnc(/N=C\c3ccc(Cl)cc3)n12` [Compound 25, N-[(1Z)-(4-chlorophenyl)methylene]-7-methyl[1,2,4]triazolo[3,4-b][1,3]benzothiazol-3-amine], for which the IC50 in assay [1] (setting [3]) was 2.9 µM; in assay [2], above 100 µM.
Turning to `COc1ccc(OC)c2c1sc1n[nH]c(=S)n12` [Compound 26, 5,8-Dimethoxy[1,2,4]triazolo[3,4-b][1,3]benzothiazole-3(2H)-thione], the IC50 in assay [1] (setting [3]) was found to be 19 µM; in assay [2] (setting [4]) it was 66 µM.
For `COc1ccc(OC)c2c1sc1nnc(NC(=O)C(C)(C)C)n12` [Compound 30, N-(5,8-dimethoxy[1,2,4]triazolo[3,4-b][1,3]benzothiazol-3-yl)-2,2-dimethylpropanamide], the IC50 in assay [1] (setting [3]) stood at 53 µM.
The same measure, in the same setting: under `COc1ccc(OC)c2c1sc1nnc(NC(C)=O)n12` [Compound 31, N-(5,8-dimethoxy[1,2,4]triazolo[3,4-b][1,3]benzothiazol-3-yl)acetamide] stands 97 µM.
